In the supplement of paper PMC10307832:

Tests used:
Assay in all cases: relative viability (nuclei count vs DMSO), 5 days (fraction); higher = more cells survive
Irinotecan + Trametinib = compound: CCc1c2c(nc3ccc(OC(=O)N4CCC(N5CCCCC5)CC4)cc13)-c1cc3c(c(=O)n1C2)COC(=O)[C@]3(O)CC [Irinotecan] + CC(=O)Nc1cccc(-n2c(=O)n(C3CC3)c(=O)c3c(Nc4ccc(I)cc4F)n(C)c(=O)c(C)c32)c1 [Trametinib] (partner 0.02 µM)
Method in brief: (§1)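 Lung cancer cell lines in 1536-well plates were dosed by pin tool the day after seeding, either with one drug alone or with a fixed anchor-drug dose plus five library-drug doses (not always all listed) in √10 steps. After 5 days, cells were fixed and their nuclei stained in one step (final 0.05% Triton X-100, 1% formaldehyde, 1 ug/ml Hoechst), then counted on 4× images. Relative viability is the nuclei count in treated wells divided by that in vehicle wells. Values are medians of duplicate plates.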

RU-SKI 43 + Lapatinib = compound: CC[C@@H](C)CNCC(=O)N1CCC2=C([C@@H]1COC3=CC=CC(=C3)C)C=CS2 [RU-SKI 43] + CS(=O)(=O)CCNCc1ccc(-c2ccc3ncnc(Nc4ccc(OCc5cccc(F)c5)c(Cl)c4)c3c2)o1 [Lapatinib] (partner 2 µM)
Method in brief: as §1

Irinotecan + Lapatinib = compound: CCc1c2c(nc3ccc(OC(=O)N4CCC(N5CCCCC5)CC4)cc13)-c1cc3c(c(=O)n1C2)COC(=O)[C@]3(O)CC [Irinotecan] + CS(=O)(=O)CCNCc1ccc(-c2ccc3ncnc(Nc4ccc(OCc5cccc(F)c5)c(Cl)c4)c3c2)o1 [Lapatinib] (partner 2 µM)
Method in brief: as §1

Irinotecan + Dasatinib = compound: CCc1c2c(nc3ccc(OC(=O)N4CCC(N5CCCCC5)CC4)cc13)-c1cc3c(c(=O)n1C2)COC(=O)[C@]3(O)CC [Irinotecan] + Cc1nc(Nc2ncc(C(=O)Nc3c(C)cccc3Cl)s2)cc(N2CCN(CCO)CC2)n1 [Dasatinib] (partner 0.075 µM)
Method in brief: as §1

| Cell Line | relative viability (Irinotecan + Trametinib; first compound 2 µM) | relative viability (Irinotecan + Trametinib; first compound 6.325 µM) | relative viability (Irinotecan + Trametinib; first compound 20 µM) | relative viability (RU-SKI 43 + Lapatinib; first compound 0.1 µM) | relative viability (RU-SKI 43 + Lapatinib; first compound 0.3162 µM) | relative viability (RU-SKI 43 + Lapatinib; first compound 1 µM) | relative viability (RU-SKI 43 + Lapatinib; first compound 10 µM) | relative viability (Irinotecan + Lapatinib; first compound 0.6325 µM) | relative viability (Irinotecan + Lapatinib; first compound 2 µM) | relative viability (Irinotecan + Lapatinib; first compound 6.325 µM) | relative viability (Irinotecan + Lapatinib; first compound 20 µM) | relative viability (Irinotecan + Dasatinib; first compound 0.6325 µM) | relative viability (Irinotecan + Dasatinib; first compound 2 µM) | relative viability (Irinotecan + Dasatinib; first compound 6.325 µM) | relative viability (Irinotecan + Dasatinib; first compound 20 µM) | relative viability (RU-SKI 43 + Lapatinib; first compound 3.162 µM) | relative viability (Irinotecan + Trametinib; first compound 0.6325 µM) |
| --- | --- | --- | --- | --- | --- | --- | --- | --- | --- | --- | --- | --- | --- | --- | --- | --- | --- |
| EPLC-272H | 0.323 | 0.224 | 0.203 | 0.913 | 0.831 | 1.25 | 0.833 | 0.509 | 0.758 | 0.211 | 0.267 | 0.146 | 0.296 | 0.15 | 0.265 | – | – |
| NCI-H1793 | 0.515 | 0.351 | 0.262 | 0.69 | 0.644 | 0.594 | 0.697 | – | 0.547 | 0.253 | 0.235 | – | 0.385 | 0.252 | 0.234 | 0.673 | – |
| NCI-H2009 | 0.34 | 0.213 | 0.0843 | 0.899 | 0.837 | 0.901 | 0.905 | 0.308 | 0.445 | 0.294 | 0.12 | 0.284 | 0.287 | 0.182 | 0.116 | 0.964 | 0.282 |
| NCI-H2347 | 0.382 | 0.351 | 0.415 | 0.951 | 0.829 | 1.08 | 0.726 | 0.682 | 0.738 | 0.449 | 0.444 | 0.307 | 0.242 | 0.245 | 0.372 | 1.04 | 0.271 |
| LU99A | 0.182 | 0.164 | 0.156 | 0.839 | 1.14 | 0.968 | 0.925 | 0.367 | 0.309 | 0.203 | 0.197 | 0.303 | 0.322 | 0.248 | 0.177 | 0.956 | 0.184 |
| NCI-H1915 | 0.175 | 0.122 | 0.127 | 1.02 | 1.22 | 1.13 | 0.993 | 0.434 | 0.373 | 0.147 | 0.15 | 0.215 | 0.221 | 0.132 | 0.128 | 1.03 | 0.25 |
| H3255 | 0.506 | 0.346 | 0.37 | 0.249 | 0.193 | 0.174 | 0.213 | 0.206 | 0.214 | 0.224 | 0.23 | 0.443 | 0.292 | 0.358 | 0.387 | 0.192 | – |
| BEN | 0.769 | 0.503 | 0.556 | 0.691 | 0.607 | 0.961 | 0.684 | 0.542 | 0.418 | 0.244 | 0.338 | 0.238 | 0.331 | 0.199 | 0.252 | 0.589 | 1.2 |
| NCI-H23 | 0.289 | 0.187 | 0.191 | 0.834 | 1.22 | 1.37 | 0.916 | 0.653 | 0.466 | 0.277 | 0.271 | 0.563 | 0.679 | 0.274 | 0.231 | 1.12 | 0.35 |
| NCI-H1944 | 0.204 | 0.177 | 0.178 | 0.825 | 0.793 | 0.864 | 0.817 | 0.563 | 0.369 | 0.178 | 0.187 | 0.151 | 0.189 | 0.121 | 0.107 | 0.86 | 0.291 |
| NCI-H1437 | 0.524 | 0.239 | 0.157 | 0.904 | 1.08 | 0.907 | 0.746 | 0.527 | 0.493 | 0.253 | 0.117 | 0.229 | 0.534 | 0.254 | 0.111 | 1.06 | 0.477 |
| HARA | 0.373 | 0.245 | 0.145 | 0.816 | 0.832 | 0.771 | 0.76 | 0.749 | 0.339 | 0.17 | 0.118 | 0.109 | 0.188 | 0.114 | 0.121 | 0.705 | 0.643 |
| LOU-NH91 | 0.768 | 0.466 | 0.29 | 0.796 | 0.685 | 0.815 | 0.754 | 0.685 | 0.8 | 0.414 | 0.402 | 0.525 | 0.548 | 0.31 | 0.361 | 0.749 | 0.774 |
| COR-L 105 | 0.425 | 0.474 | 0.401 | 0.411 | 0.344 | 0.379 | 0.351 | 0.358 | 0.431 | 0.452 | 0.272 | 0.376 | 0.42 | 0.333 | 0.182 | 0.376 | 0.432 |
| NCI-H838 | 0.647 | 0.319 | 0.171 | 0.905 | 0.945 | 1.12 | 1.01 | 1.03 | 0.874 | 0.399 | 0.161 | 0.213 | 0.259 | 0.249 | 0.247 | 1.17 | 0.672 |
| NCI-H1975 | 0.341 | 0.292 | 0.224 | 0.968 | 1.32 | 0.867 | 1.02 | 0.86 | 0.689 | 0.302 | 0.14 | 0.28 | 0.469 | 0.305 | 0.155 | 0.853 | 0.224 |
| SK-MES-1 | 0.557 | 0.311 | 0.173 | 0.471 | 0.49 | 0.519 | 0.422 | 0.544 | 0.414 | 0.25 | 0.32 | 0.293 | 0.284 | 0.22 | 0.186 | 0.51 | 0.528 |
| NCI-H2170 | 0.309 | 0.119 | 0.111 | 0.259 | 0.241 | 0.292 | 0.256 | 0.271 | 0.264 | 0.231 | 0.2 | 0.563 | 0.663 | 0.281 | 0.164 | 0.273 | 0.798 |
| NCI-H647 | 0.414 | 0.151 | 0.0916 | 1.24 | 1.22 | 1.16 | 1.26 | 0.865 | 0.44 | 0.199 | 0.138 | 0.123 | 0.187 | 0.131 | 0.0807 | 1.25 | 0.447 |
| A-427 | 0.657 | 0.365 | 0.175 | 1.01 | 1.22 | 1.1 | 1 | – | 0.752 | 0.221 | 0.179 | – | 0.535 | 0.211 | 0.16 | – | 0.719 |
| HCC-366 | 0.184 | 0.0834 | 0.0768 | 1.03 | 1.33 | 1.21 | 1.05 | 0.418 | 0.126 | 0.0457 | 0.0686 | 0.362 | 0.429 | 0.0758 | 0.0603 | 1.15 | 0.266 |
| CAL-12T | 0.292 | 0.299 | 0.274 | 0.661 | 0.759 | 0.551 | 0.619 | 0.71 | 0.543 | 0.475 | 0.442 | – | 0.513 | 0.29 | 0.095 | 0.562 | 0.309 |
